Results: the supplement of paper PMC10331698
± gives the standard deviation of the averaged measurements.

Experiments:
Assay in all cases: level (log10 ratio to DMSO vehicle control); higher = higher biomarker level / cell amount than vehicle control
Conditions in all cases: in DMSO
[1] = compound: C=C(C)C(=O)OCCC(F)(F)C(F)(F)C(F)(F)C(F)(F)C(F)(C(F)(F)F)C(F)(F)F [(Perfluoro-5-methylhexyl)ethyl 2-methylprop-2-enoate]
Description: (§1)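 BioMAP Diversity Plus panel of 12 human primary cell co-culture systems (3C, 4H, LPS, SAg, BT, BF4T, BE3C, CASM3C, HDF3CGF, KF3CT, MyoF, Mphg). Compounds were added 1 h before stimulation and left for 24 h (MyoF 48 h; BT 72 h for soluble read-outs or 6 d for IgG). Biomarkers were read by ELISA, cytotoxicity by SRB, PBMC viability and proliferation by Alamar Blue. Each well value was divided by the mean of 8 DMSO control wells on the same plate and log10 transformed; duplicate blinded samples were tested at 4 concentrations.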

[2] = compound: O=S(=O)(O)C(F)(F)C(F)(F)C(F)(F)C(F)(F)C(F)(F)C(F)(F)F [Perfluorohexanesulfonic acid]
Description: as §1

[3] = compound: O=C(O)C(F)(F)C(F)(F)C(F)(F)C(F)(F)C(F)(F)C(F)(F)C(F)(F)C(F)F [9-H-Perfluorononanoic acid]
Description: as §1

[4] = compound: O=C(O)C(F)(F)OC(F)(F)C(F)(F)OC(F)(F)C(=O)O [Perfluoro-3,6-dioxaoctane-1,8-dioic acid]
Description: as §1

Pentafluoropropionamide = compound: NC(=O)C(F)(F)C(F)(F)F [Pentafluoropropionamide]
Description: as §1

[5] = compound: C=CC(F)(F)C(F)(F)C(F)(F)C(F)(F)C(F)(F)C(F)(F)C(F)(F)C(F)(F)C=C [1,8-Divinylperfluorooctane]
Description: as §1

[6] = compound: C=CC(=O)OCC(F)(F)C(F)(F)C(F)(F)C(F)(F)C(F)(F)C(F)(F)C(F)(F)F [1H,1H-Perfluorooctyl acrylate]
Description: as §1

Row | Test System | level (log10) ([1]; 6700 nM) | level (log10) ([1]; 20000 nM) | level (log10) ([2]; 6700 nM) | level (log10) ([2]; 20000 nM) | level (log10) ([2]; 60000 nM) | level (log10) ([3]; 6700 nM) | level (log10) ([3]; 20000 nM) | level (log10) ([3]; 60000 nM) | level (log10) ([4]; 6700 nM) | level (log10) ([4]; 20000 nM) | level (log10) ([4]; 60000 nM) | level (log10) (Pentafluoropropionamide; 6700 nM) | level (log10) (Pentafluoropropionamide; 20000 nM) | level (log10) (Pentafluoropropionamide; 60000 nM) | level (log10) ([5]; 6700 nM) | level (log10) ([5]; 20000 nM) | level (log10) ([6]; 6700 nM) | level (log10) ([6]; 20000 nM) | level (log10) ([6]; 60000 nM)
1 | MyoF:CD106/VCAM-1 | 0.0095 ± 0.0092 | -0.013 ± 0.0028 | 0.005 ± 0.018 | 0.003 ± 0.0042 | -0.0145 ± 0.023 | -0.015 ± 0.02 | -0.0135 ± 0.005 | -0.0125 ± 0.025 | -0.022 ± 0.016 | 0.0025 ± 0.005 | 0.0005 ± 0.019 | -0.013 ± 0.017 | 0.006 ± 0.028 | -0.0075 ± 0.0021 | 0.006 ± 0.0042 | 0.0075 ± 0.018 | -0.011 ± 0.0042 | -0.0095 ± 0.0035 | -0.024 ± 0.0042
2 | HDF3CGF:CXCL9/MIG | 0.0135 ± 0.00071 | 0.0095 ± 0.011 | -0.0195 ± 0.0021 | -0.017 | 0.005 ± 0.042 | -0.0475 ± 0.022 | -0.052 ± 0.0071 | -0.0735 ± 0.016 | -0.0185 ± 0.016 | 0.0135 ± 0.0092 | 0.0085 ± 0.005 | -0.016 ± 0.0042 | 0.0095 ± 0.00071 | 0.0015 ± 0.0078 | 0.006 ± 0.0057 | -0.001 ± 0.024 | -0.0265 ± 0.0035 | -0.029 ± 0.03 | -0.0745 ± 0.0078
3 | BE3C:Keratin 8/18 | -0.0185 ± 0.0092 | 0.0005 ± 0.0064 | 0.0085 ± 0.0035 | 0.0005 ± 0.0064 | -0.018 ± 0.0085 | -0.006 ± 0.0085 | 0.005 ± 0.0042 | -0.012 ± 0.018 | -0.0105 ± 0.0092 | -0.004 ± 0.0014 | 0.0005 ± 0.022 | -0.0185 ± 0.0021 | -0.0185 ± 0.005 | -0.0185 ± 0.018 | 0.0015 ± 0.005 | -0.0165 ± 0.005 | -0.011 ± 0.023 | -0.0145 ± 0.029 | -0.0045 ± 0.022
4 | MyoF:CXCL8/IL-8 | -0.011 ± 0.011 | -0.0255 ± 0.0064 | 0.001 ± 0.061 | -0.0185 ± 0.063 | -0.018 ± 0.051 | 0.021 ± 0.023 | 0.003 ± 0.013 | -0.001 ± 0.023 | -0.0025 ± 0.023 | -0.012 ± 0.0085 | 0.034 ± 0.045 | -0.031 ± 0.013 | -0.026 ± 0.016 | 0.013 ± 0.045 | -0.028 ± 0.014 | 0.0085 ± 0.035 | 0.002 ± 0.0099 | 0.037 ± 0.062 | 0.0185 ± 0.036
5 | lMphg:CD106/VCAM-1 | -0.0315 ± 0.011 | -0.014 ± 0.0057 | -0.011 ± 0.044 | 0.0075 ± 0.0035 | 0.005 ± 0.011 | -0.008 ± 0.018 | 0.0185 ± 0.00071 | 0.0075 ± 0.023 | -0.013 ± 0.0071 | -0.0165 ± 0.0021 | -0.0165 ± 0.036 | 0.0015 ± 0.033 | -0.009 ± 0.021 | -0.0045 ± 0.043 | -0.014 ± 0.018 | -0.016 ± 0.016 | -0.0115 ± 0.022 | -0.001 ± 0.018 | -0.0145 ± 0.037
6 | BE3C:MMP-9 | 0.0245 ± 0.039 | 0.022 ± 0.044 | 0.0095 ± 0.026 | 0.014 ± 0.0071 | 0.0275 ± 0.00071 | 0.015 ± 0.02 | 0.0415 ± 0.00071 | 0.0255 ± 0.0021 | -0.0115 ± 0.0078 | -0.0035 ± 0.028 | 0.0385 ± 0.00071 | -0.002 ± 0.011 | -0.02 ± 0.031 | 0.004 ± 0.017 | -0.0165 ± 0.011 | -0.0165 ± 0.012 | -0.0135 ± 0.025 | -0.013 ± 0.024 | -0.022 ± 0.018
7 | HDF3CGF:TIMP-2 | 0.0075 ± 0.026 | -0.0295 ± 0.019 | -0.0055 ± 0.015 | 0.0095 ± 0.0035 | -0.02 ± 0.0099 | -0.07 ± 0.086 | -0.0755 ± 0.028 | -0.0595 ± 0.049 | -0.0145 ± 0.035 | -0.0075 ± 0.011 | 0.001 ± 0.027 | -0.0185 ± 0.026 | 0.008 ± 0.0057 | 0.033 ± 0.013 | 0.025 ± 0.013 | -0.0115 ± 0.012 | 0.0145 ± 0.016 | -0.023 ± 0.011 | -0.041 ± 0.0028
8 | KF3CT:uPA | 0.007 ± 0.0057 | 0.007 ± 0.0028 | -0.0135 ± 0.015 | -0.0105 ± 0.015 | -0.002 ± 0.0014 | 0.006 ± 0.024 | 0.003 ± 0.024 | -0.0115 ± 0.00071 | 0.0005 ± 0.0078 | 0 ± 0.0071 | 0.012 ± 0.0014 | -0.005 ± 0.0014 | 0.008 ± 0.0085 | 0.002 ± 0.018 | -0.0185 ± 0.0035 | -0.0185 ± 0.028 | 0.01 ± 0.0014 | -0.004 ± 0.013 | 0.0135 ± 0.023
9 | BE3C:MMP-1 | 0.026 ± 0.0042 | 0.014 ± 0.0057 | 0.0075 ± 0.00071 | 0.0375 ± 0.018 | 0.227 ± 0.042 | 0.043 ± 0.045 | 0.061 ± 0.0028 | 0.204 ± 0.047 | -0.0085 ± 0.029 | -0.023 ± 0.047 | 0.011 ± 0.025 | 0.0275 ± 0.015 | 0.0185 ± 0.028 | 0.0665 ± 0.037 | 0.0095 ± 0.069 | 0.0345 ± 0.0092 | -0.018 ± 0.016 | -0.0215 ± 0.0035 | 0.006 ± 0.0014
10 | MyoF:MMP-1 | -0.023 ± 0.0057 | -0.0365 ± 0.074 | -0.029 ± 0.0085 | -0.012 | -0.002 ± 0.0028 | -0.015 ± 0.0099 | -0.005 | -0.0215 ± 0.023 | -0.0065 ± 0.0092 | -0.0155 ± 0.019 | 0.0225 ± 0.067 | -0.0305 ± 0.063 | -0.0255 ± 0.0064 | 0.016 ± 0.058 | -0.054 ± 0.037 | 0.034 ± 0.099 | -0.0135 ± 0.019 | -0.016 | 0.0275 ± 0.005
11 | KF3CT:CXCL8/IL-8 | -0.013 ± 0.037 | 0.006 ± 0.03 | 0.015 ± 0.02 | 0.03 ± 0.0057 | 0.038 ± 0.0057 | 0.0035 ± 0.015 | 0.0085 ± 0.0078 | 0.008 ± 0.0071 | -0.0015 ± 0.0078 | 0.0025 ± 0.033 | 0.026 ± 0.025 | -0.005 ± 0.0042 | -0.0105 ± 0.005 | 0.0215 ± 0.012 | -0.0035 ± 0.033 | 0.011 ± 0.0057 | -0.0205 ± 0.021 | -0.0005 ± 0.019 | 0.0405 ± 0.0021
12 | lMphg:SRB-Mphg | 0.0015 ± 0.011 | -0.0095 ± 0.021 | 0.0015 ± 0.074 | 0.013 ± 0.0071 | 0.0255 ± 0.018 | 0.0225 ± 0.018 | 0.043 ± 0.013 | 0.0175 ± 0.032 | -0.0025 ± 0.0035 | -0.009 ± 0.016 | -0.003 ± 0.0099 | -0.0135 ± 0.074 | 0.0555 ± 0.043 | 0.0595 ± 0.0078 | -0.0135 ± 0.016 | 0.0495 ± 0.0092 | -0.002 ± 0.011 | -0.0015 ± 0.0078 | 0.0045 ± 0.018
13 | CASM3C:Serum Amyloid A | -0.0325 ± 0.021 | 0.025 ± 0.0085 | -0.0215 ± 0.057 | -0.0085 ± 0.015 | 0.007 ± 0.021 | -0.0295 ± 0.035 | -0.02 | 0.0435 ± 0.053 | -0.012 ± 0.0028 | -0.0235 ± 0.011 | 0.0265 ± 0.06 | 0.0045 ± 0.015 | -0.0055 ± 0.0035 | 0.0245 ± 0.005 | -0.0145 ± 0.0035 | -0.011 ± 0.0085 | 0.03 ± 0.014 | 0.032 ± 0.044 | 0.0485 ± 0.013
14 | lMphg:CCL2/MCP-1 | 0.014 ± 0.0099 | 0.0175 ± 0.037 | -0.014 ± 0.0085 | 0.006 ± 0.037 | 0.054 ± 0.024 | -0.0085 ± 0.0021 | -0.0215 ± 0.013 | 0.014 ± 0.04 | -0.0165 ± 0.021 | -0.019 ± 0.027 | -0.008 ± 0.0057 | -0.0145 ± 0.0035 | -0.012 ± 0.0042 | 0 ± 0.03 | -0.0195 ± 0.013 | 0.0125 ± 0.03 | -0.0065 ± 0.039 | -0.016 ± 0.0057 | 0.002 ± 0.03
15 | 3C:CD141/Thrombomodulin | 0.041 ± 0.033 | 0.005 ± 0.033 | -0.008 ± 0.035 | -0.015 ± 0.023 | -0.004 ± 0.0028 | 0.012 ± 0.0085 | -0.003 ± 0.0085 | -0.0365 ± 0.0078 | -0.0265 ± 0.036 | -0.0065 ± 0.023 | 0.0095 ± 0.028 | -0.0355 ± 0.032 | -0.0165 ± 0.005 | -0.027 ± 0.018 | -0.0215 ± 0.022 | -0.0055 ± 0.023 | -0.027 ± 0.017 | -0.023 ± 0.018 | -0.0455 ± 0.021
